The record followed here is patent US12502386B2, “Nitrogen-containing heterocyclic compound and use thereof” (SHANGHAI SHIJIANG BIOTECHNOLOGY CO., LTD, priority 2022, dated 2025).

Holding throughout (type): cell-based, human
One assay relates to ov-NNMT NCI-H82 cell. The experiment in a line: CellTiter-Glo cell viability, ov-NNMT NCI-H82 cell (NNMT overexpressed). Particulars: Homo sapiens, NCI-H82, NCI-H82 overexpressing NNMT protein, intracellular ATP, read-out: inhibitory effect on OV-NNMT NCI-H82 (IC50).
The test system of the next assay is Con-NCI-H82 cell. The experiment in a line: CellTiter-Glo cell viability, Con-NCI-H82 cell (empty-vector control). Particulars: Homo sapiens, NCI-H82, NCI-H82 transfected with empty virus vector (control), intracellular ATP, read-out: inhibitory effect on Con-NCI-H82 (IC50). A general note: Cellular ATP, detected with luciferase, serves as a proxy for viable cell number.

The test system of the next assay is sh-DNMT1 NCI-H82 cell. Put plainly: CellTiter-Glo cell viability, sh-DNMT1 NCI-H82 cell (DNMT1 knocked down). Particulars: Homo sapiens, NCI-H82, NCI-H82 with DNMT1 knocked down by shRNA, intracellular ATP, read-out: inhibitory effect on sh-DNMT1 NCI-H82 (IC50).

One may read the IC50 as the concentration at which inhibition is half-maximal. In the case of `COc1ccc2c(c1OCCCCCCCl)C(C1CCCC1)N1CCc3cc4c(cc3C1=C2)OCO4` (stereo not drawn) [AB35440], the IC50 with ov-NNMT NCI-H82 cell stood at 2.56 µM; with Con-NCI-H82 cell, 0.98 µM; with sh-DNMT1 NCI-H82 cell, 4.12 µM.

For `COc1ccc2c(c1N1CCN(C)CC1)C(C1CCCC1)N1CCc3cc4c(cc3C1=C2)OCO4` (stereo not drawn) [AB35519], the figures for the 50% inhibitory concentration (IC50) with ov-NNMT NCI-H82 cell, in the assay on Con-NCI-H82 cell and with sh-DNMT1 NCI-H82 cell were 5.68 µM, 2.19 µM and 4.68 µM, respectively.

Consider `COc1ccc2c(c1OCCCCOc1ccccc1)C(C)N1CCc3cc4c(cc3C1=C2)OCO4` (stereo not drawn) [AB31881], for which the IC50 was found to be 4.04 µM in the assay on ov-NNMT NCI-H82 cell, 2.01 µM with Con-NCI-H82 cell and 3.98 µM in the assay with sh-DNMT1 NCI-H82 cell.

Take `[2H]C1([2H])Cc2cc3c(cc2C2=Cc4ccc(OC)c(OC)c4CN21)OCO3` [AB36476]: the IC50 with ov-NNMT NCI-H82 cell is 4.86 µM; in the assay with Con-NCI-H82 cell, 1.24 µM; in the assay with sh-DNMT1 NCI-H82 cell it was 7.34 µM.

On to `COc1ccc2c(c1OC(=O)CC13CC4CC(CC(C4)C1)C3)C(C1CCCC1)N1CCc3cc4c(cc3C1=C2)OCO4` (stereo not drawn) [AB35459], for which the values for the IC50 in the assay on ov-NNMT NCI-H82 cell, in the assay with Con-NCI-H82 cell and in the assay with sh-DNMT1 NCI-H82 cell were 12.3 µM, 4.97 µM and 16.5 µM, respectively.

With `COc1ccc2c(c1OCc1ccccc1-c1ccccc1)C(C(Cl)(Cl)Cl)N1CCc3cc4c(cc3C1=C2)OCO4` (stereo not drawn) [AB35531], the IC50 in the assay with ov-NNMT NCI-H82 cell came out at 3.55 µM; with Con-NCI-H82 cell, 0.92 µM; with sh-DNMT1 NCI-H82 cell, 3.98 µM.

As to `COc1ccc2c(c1OCCCCCCNC(=O)OC(C)(C)C)C(C)N1CCc3cc4c(cc3C1=C2)OCO4` (stereo not drawn) [AB35415], the half-maximal inhibitory concentration (IC50) was found to be 3.42 µM with ov-NNMT NCI-H82 cell, 1.14 µM with Con-NCI-H82 cell and 5.48 µM in the assay on sh-DNMT1 NCI-H82 cell.

Turning to `ClC(Cl)(Cl)C1c2c(ccc3c2OCO3)C=C2c3cc4c(cc3CCN21)OCO4` (stereo not drawn) [AB35421], the half-inhibitory concentration (IC50) was 12.4 µM in the assay with ov-NNMT NCI-H82 cell, 5.77 µM in the assay on Con-NCI-H82 cell and 21.2 µM in the assay with sh-DNMT1 NCI-H82 cell.

Turning to `COc1ccc2c(c1OCCCCCCNC(=O)OC(C)(C)C)C(C1CCCC1)N1CCc3cc4c(cc3C1=C2)OCO4` (stereo not drawn) [AB35455], the results for the IC50 in the assay on ov-NNMT NCI-H82 cell, in the assay on Con-NCI-H82 cell and in the assay with sh-DNMT1 NCI-H82 cell were 3.33 µM, 1.11 µM and 3.12 µM, respectively.

For `COc1ccc2c(c1OC)C(C)N1CCc3cc4c(cc3C1=C2CCc1ccccc1)OCO4` (stereo not drawn) [AB35498], the IC50 came out at 4.12 µM in the assay with ov-NNMT NCI-H82 cell, 1.28 µM with Con-NCI-H82 cell and 4.38 µM in the assay on sh-DNMT1 NCI-H82 cell.

For `COc1ccc2c(c1NCCc1ccccc1)C(C)N1CCc3cc4c(cc3C1=C2)OCO4` (stereo not drawn) [AB31895], the 50% inhibitory concentration (IC50) in the assay with ov-NNMT NCI-H82 cell was found to be 3.24 µM; in the assay on Con-NCI-H82 cell it was 1.14 µM; in the assay on sh-DNMT1 NCI-H82 cell it was 4.68 µM.

Regarding `COc1ccc2c(c1N1CCC(C)CC1)CN1CCc3cc4c(cc3C1=C2)OCCO4` [AB35545], the IC50 turned out to be 1.33 µM with ov-NNMT NCI-H82 cell, 0.14 µM in the assay with Con-NCI-H82 cell and 1.56 µM in the assay with sh-DNMT1 NCI-H82 cell.

With `COc1ccc2c(c1OCCCCCCNC(=O)OC(C)(C)C)C(C(Cl)(Cl)Cl)N1CCc3cc4c(cc3C1=C2)OCO4` (stereo not drawn) [AB35407], the half-maximal inhibitory concentration (IC50) in the assay on ov-NNMT NCI-H82 cell was 2.73 µM; in the assay on Con-NCI-H82 cell, 0.74 µM; with sh-DNMT1 NCI-H82 cell, 3.44 µM.

Take `COc1ccc2c(c1OC)C(C(Cl)(Cl)Cl)N1CCc3cc4c(cc3C1=C2CCCCCCCl)OCO4` (stereo not drawn) [AB35524]: the results for the IC50 in the assay on ov-NNMT NCI-H82 cell, in the assay with Con-NCI-H82 cell and in the assay with sh-DNMT1 NCI-H82 cell were 4.32 µM, 1.34 µM and 4.02 µM, respectively.

Regarding `CCCCCC1c2c(ccc3c2OCO3)C=C2c3cc4c(cc3CCN21)OCO4` (stereo not drawn) [AB36433], the results for the IC50 in the assay on ov-NNMT NCI-H82 cell, in the assay on Con-NCI-H82 cell and in the assay with sh-DNMT1 NCI-H82 cell were 1.95 µM, 0.54 µM and 3.01 µM, respectively.

Turning to `COc1ccc2c(c1OCCCCNC(=O)OC(C)(C)C)C(C(Cl)(Cl)Cl)N1CCc3cc4c(cc3C1=C2)OCO4` (stereo not drawn) [AB35423], the half-inhibitory concentration (IC50) is 4.96 µM in the assay on ov-NNMT NCI-H82 cell, 2.16 µM in the assay with Con-NCI-H82 cell and 4.36 µM in the assay on sh-DNMT1 NCI-H82 cell.

As to `COc1ccc2c(c1OCCCCl)C(C1CCCCC1)N1CCc3cc4c(cc3C1=C2)OCO4` (stereo not drawn) [AB35491], the figures for the IC50 in the assay on ov-NNMT NCI-H82 cell, in the assay on Con-NCI-H82 cell and in the assay on sh-DNMT1 NCI-H82 cell were 6.86 µM, 2.22 µM and 6.54 µM, respectively.

`[2H]C1c2c(ccc(OC)c2OC)C=C2c3cc4c(cc3CC([2H])([2H])N21)OCO4` (stereo not drawn) [AB36477]: the values for the IC50 with ov-NNMT NCI-H82 cell, in the assay with Con-NCI-H82 cell and with sh-DNMT1 NCI-H82 cell were 5.68 µM, 1.22 µM and 8.82 µM, respectively.

In the case of `COc1ccc2c(c1OCCBr)CN1CCc3cc4c(cc3C1=C2)OCO4` [AB36403], the half-inhibitory concentration (IC50) in the assay on ov-NNMT NCI-H82 cell worked out at 1.54 µM; in the assay with Con-NCI-H82 cell, 0.38 µM; in the assay with sh-DNMT1 NCI-H82 cell, 1.46 µM.

With `COc1ccc2c(c1OCCCCCCCl)C(C)N1CCc3cc4c(cc3C1=C2)OCO4` (stereo not drawn) [AB31888], the 50% inhibitory concentration (IC50) worked out at 4.64 µM in the assay with ov-NNMT NCI-H82 cell, 2.26 µM with Con-NCI-H82 cell and 6.12 µM with sh-DNMT1 NCI-H82 cell.

For `COc1ccc2c(c1OCCCCCCCl)C(C(Cl)(Cl)Cl)N1CCc3cc4c(cc3C1=C2)OCO4` (stereo not drawn) [AB35475], the IC50 in the assay with ov-NNMT NCI-H82 cell was 4.12 µM; with Con-NCI-H82 cell it was 1.29 µM; in the assay with sh-DNMT1 NCI-H82 cell it was 4.02 µM.

For the molecule `COc1ccc2c(c1Br)CN1CCc3cc4c(cc3C1=C2)OCO4` [AB36460], the half-maximal inhibitory concentration (IC50) in the assay with ov-NNMT NCI-H82 cell is 3.33 µM; with Con-NCI-H82 cell it was 1.06 µM; in the assay with sh-DNMT1 NCI-H82 cell, 4.58 µM.

`[2H]C([2H])([2H])Oc1c(OC)ccc2c1C([2H])(C1CCCC1)N1CCc3cc4c(cc3C1=C2)OCO4` (stereo not drawn) [AB36509]: the 50% inhibitory concentration (IC50) in the assay with ov-NNMT NCI-H82 cell is 1.68 µM; with Con-NCI-H82 cell, 0.51 µM; in the assay with sh-DNMT1 NCI-H82 cell it was 2.58 µM.

In the case of `COc1ccc2c(c1OCCCN1CCCCC1)C(C)N1CCc3cc4c(cc3C1=C2)OCO4` (stereo not drawn) [AB35442], the results for the IC50 in the assay on ov-NNMT NCI-H82 cell, in the assay with Con-NCI-H82 cell and in the assay with sh-DNMT1 NCI-H82 cell were 8.38 µM, 9.22 µM and 9.32 µM, respectively.

Regarding `COc1ccc2c(c1OCCNC(=O)OC(C)(C)C)C(C)N1CCc3cc4c(cc3C1=C2)OCO4` (stereo not drawn) [AB35424], the IC50 with ov-NNMT NCI-H82 cell came to 11.2 µM; in the assay on Con-NCI-H82 cell it was 5.02 µM; in the assay with sh-DNMT1 NCI-H82 cell, 10.8 µM.

Turning to `[2H]C1([2H])c2c(ccc(OC)c2OC)C=C2c3cc4c(cc3CCN21)OCO4` [AB36434], the results for the 50% inhibitory concentration (IC50) in the assay on ov-NNMT NCI-H82 cell, in the assay on Con-NCI-H82 cell and in the assay on sh-DNMT1 NCI-H82 cell were 2.56 µM, 1.02 µM and 3.68 µM, respectively.

For the molecule `COc1ccc2c(c1OC)C(C)N1CCc3cc4c(cc3C1=C2CCCc1ccccc1)OCO4` (stereo not drawn) [AB35411], the half-inhibitory concentration (IC50) with ov-NNMT NCI-H82 cell came out at 2.51 µM; in the assay on Con-NCI-H82 cell, 1.24 µM; with sh-DNMT1 NCI-H82 cell, 4.34 µM.

With `CCCC1c2c(ccc3c2OCO3)C=C2c3cc4c(cc3CCN21)OCO4` (stereo not drawn) [AB36416], the results for the IC50 with ov-NNMT NCI-H82 cell, in the assay on Con-NCI-H82 cell and in the assay on sh-DNMT1 NCI-H82 cell were 3.44 µM, 1.08 µM and 4.51 µM, respectively.

Turning to `[2H]C1c2c(ccc(OC)c2OC)C=C2c3cc4c(cc3CCN21)OCO4` (stereo not drawn) [AB36415], the IC50 with ov-NNMT NCI-H82 cell stood at 2.56 µM; in the assay with Con-NCI-H82 cell, 0.88 µM; with sh-DNMT1 NCI-H82 cell it was 3.64 µM.

Regarding `COc1ccc2c(c1N1CCCCCC1)CN1CCc3cc4c(cc3C1=C2)OCO4` [AB36493], the IC50 in the assay with ov-NNMT NCI-H82 cell was 1.58 µM; with Con-NCI-H82 cell it was 0.29 µM; in the assay on sh-DNMT1 NCI-H82 cell it was 1.98 µM.

`COc1ccc2c(c1OC)C(=C(Cl)Cl)N1CCc3cc4c(cc3C1=C2)OCO4` [AB36512]: the 50% inhibitory concentration (IC50) in the assay on ov-NNMT NCI-H82 cell turned out to be 4.08 µM; with Con-NCI-H82 cell, 4.36 µM; in the assay with sh-DNMT1 NCI-H82 cell, 3.96 µM.

Consider `CCCC1=C2c3cc4c(cc3CCN2C(C(Cl)(Cl)Cl)c2c1ccc1c2OCO1)OCO4` (stereo not drawn) [AB36427], for which the IC50 in the assay on ov-NNMT NCI-H82 cell was found to be 7.56 µM; with Con-NCI-H82 cell it was 3.28 µM; in the assay on sh-DNMT1 NCI-H82 cell, 6.98 µM.

Regarding `COc1ccc2c(c1OCCCCl)C(C1CCC1)N1CCc3cc4c(cc3C1=C2)OCO4` (stereo not drawn) [AB35490], the results for the concentration for half-maximal inhibition (IC50) with ov-NNMT NCI-H82 cell, in the assay on Con-NCI-H82 cell and in the assay with sh-DNMT1 NCI-H82 cell were 7.52 µM, 2.68 µM and 8.46 µM, respectively.

On to `COc1ccc2c(c1OC)C(C(Cl)(Cl)Cl)N1CCc3cc4c(cc3C1=C2CCc1ccccc1)OCO4` (stereo not drawn) [AB35444], for which the IC50 amounted to 4.21 µM with ov-NNMT NCI-H82 cell, 1.15 µM in the assay on Con-NCI-H82 cell and 5.28 µM in the assay on sh-DNMT1 NCI-H82 cell.
